Test results from patent US20260347347A1, “2-AZA-AND 2-OXABICYCLO[2.1.1]HEXANE DERIVATIVES AS FACTOR XIIA ENZYME INHIBITORS” (KALVISTA PHARMACEUTICALS LIMITED, priority 2022, published 2026).

Biological target: T1, Human Factor XIIa (Homo sapiens, UniProt P00748)
T1 construct: purchased Enzyme Research Laboratories
T1 sequence (P00748 373-615 limits assumed): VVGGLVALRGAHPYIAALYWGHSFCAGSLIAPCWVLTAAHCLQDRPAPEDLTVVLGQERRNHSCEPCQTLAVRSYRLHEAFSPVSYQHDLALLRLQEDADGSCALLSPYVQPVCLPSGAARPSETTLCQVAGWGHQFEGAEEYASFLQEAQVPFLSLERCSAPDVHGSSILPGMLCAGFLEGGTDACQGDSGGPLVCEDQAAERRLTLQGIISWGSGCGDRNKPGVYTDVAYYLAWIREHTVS
T1 sequence (P00748 20-372 partner limits assumed): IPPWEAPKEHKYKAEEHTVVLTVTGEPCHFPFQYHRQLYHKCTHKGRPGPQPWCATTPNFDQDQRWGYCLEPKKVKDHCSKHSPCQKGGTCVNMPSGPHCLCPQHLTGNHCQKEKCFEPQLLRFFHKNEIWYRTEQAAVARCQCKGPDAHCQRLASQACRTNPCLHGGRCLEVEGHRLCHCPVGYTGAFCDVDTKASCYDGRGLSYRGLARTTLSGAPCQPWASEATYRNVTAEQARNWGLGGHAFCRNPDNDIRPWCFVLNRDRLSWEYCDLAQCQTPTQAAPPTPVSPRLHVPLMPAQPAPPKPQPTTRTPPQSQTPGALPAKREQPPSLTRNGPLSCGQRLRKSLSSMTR
Assay: Determination of FXIIa inhibition (in vitro IC50 assay, fluorogenic substrate H-DPro-Phe-Arg-AFC)
Type: biochemical
Conditions: human Factor XIIa, fluorogenic substrate H-DPro-Phe-Arg-AFC at Km concentration, 5 min, 25 °C; for IC50: class symbols, read-out: Human FXIIa IC50
Protocol: In vitro inhibition of Factor XIIa was determined using an IC50 assay based on standard literature methods (see e.g Baeriswyl et al., ACS Chem. Biol., 2015, 10 (8) 1861; Bouckaert et al., European Journal of Medicinal Chemistry 110 (2016) 181). Human Factor XIIa (Enzyme Research Laboratories) was incubated at 25 °C with the fluorogenic substrate H-DPro-Phe-Arg-AFC (Peptide Protein Science) and various concentrations of the test compound. Protease activity was measured by monitoring the accumulation of liberated fluorescence from the substrate over 5 min at 25 °C. The linear rate of fluorescence increase per minute was expressed as percentage (%) activity. The Km for the cleavage of the substrate by FXIIa was determined by standard transformation of the Michaelis-Menten equation. The compound inhibitor assays were performed at substrate Km concentration. IC50 values were calculated as the concentration of inhibitor giving 50% inhibition (IC50) of the uninhibited enzyme activity (100%).

| IC50 [nM] | Human FXIIa inhibition (compounds that did not achieve 50% inhibition) (class symbols H1/H2 for % inhibition at top concentration) | SMILES |
| --- | --- | --- |
| 10 to 100 |  | Cc1cc(OCC23CN(C(=O)N4CCC5(C4)CC5(F)F)C(CNc4cccc5c(N)nccc45)(C2)C3)cc(=O)n1C (stereo not drawn) [Example 89, 4-((1-(((1-aminoisoquinolin-5-yl)amino)methyl)-2-(1,1-difluoro-5-azaspiro[2.4]heptane-5-carbonyl)-2-azabicyclo[2.1.1]hexan-4-yl)methoxy)-1,6-dimethylpyridin-2(1H)-one] |
| 1 to 10 |  | Cc1cc(OCC23CN(C(=O)NC4(c5ccccc5)CC4)C(CNc4cccc5c(N)nccc45)(C2)C3)cc(=O)n1C [Example 57, 1-(((1-aminoisoquinolin-5-yl)amino)methyl)-4-(((1,6-dimethyl-2-oxo-1,2-dihydropyridin-4-yl)oxy)methyl)-N-(1-phenylcyclopropyl)-2-azabicyclo[2.1.1]hexane-2-carboxamide] |
| 10000 to 40000 |  | Cc1cc(OCC23CN(C(=O)NC4(c5ccccc5)CC4)C(CNc4ccc(N)nc4)(C2)C3)cc(=O)n1C [Example 58, 1-(((6-aminopyridin-3-yl)amino)methyl)-4-(((1,6-dimethyl-2-oxo-1,2-dihydropyridin-4-yl)oxy)methyl)-N-(1-phenylcyclopropyl)-2-azabicyclo[2.1.1]hexane-2-carboxamide] |
| 10 to 100 |  | Cn1ccc(OCC23CN(C(=O)NC4CCC(S(=O)(=O)C5CCCCC5)CC4)C(CNc4cccc5c(N)nccc45)(C2)C3)cc1=O (stereo not drawn) [Example 74, 1-(((1-aminoisoquinolin-5-yl)amino)methyl)-N-(4-(cyclohexylsulfonyl)cyclohexyl)-4-(((1-methyl-2-oxo-1,2-dihydropyridin-4-yl)oxy)methyl)-2-azabicyclo[2.1.1]hexane-2-carboxamide] |
| 1 to 10 |  | Cn1ccc(OCC23CN(C(=O)N[C@@H]4C[C@H]4c4ccccc4)C(CNc4cccc5c(N)nccc45)(C2)C3)cc1=O (racemic) [Example 60, rac-1-(((1-aminoisoquinolin-5-yl)amino)methyl)-4-(((1-methyl-2-oxo-1,2-dihydropyridin-4-yl)oxy)methyl)-N-((1R,2S)-2-phenylcyclopropyl)-2-azabicyclo[2.1.1]hexane-2-carboxamide] |
| 1 to 10 |  | Cn1ccc(OCC23CN(C(=O)Nc4ccc5c(c4)CCO5)C(CNc4cccc5c(N)nccc45)(C2)C3)cc1=O [Example 38, 1-(((1-aminoisoquinolin-5-yl)amino)methyl)-N-(2,3-dihydrobenzofuran-5-yl)-4-(((1-methyl-2-oxo-1,2-dihydropyridin-4-yl)oxy)methyl)-2-azabicyclo[2.1.1]hexane-2-carboxamide] |
| 10 to 100 |  | Cn1ccc(OCC23CN(C(=O)N4CC5(CCC5)C4)C(CNc4cccc5c(N)nccc45)(C2)C3)cc1=O [Example 51, 4-((1-(((1-aminoisoquinolin-5-yl)amino)methyl)-2-(2-azaspiro[3.3]heptane-2-carbonyl)-2-azabicyclo[2.1.1]hexan-4-yl)methoxy)-1-methylpyridin-2(1H)-one] |
| 10 to 100 |  | CO[C@H]1CC[C@H](CC(=O)N2CC3(COc4cc(C)n(C)c(=O)c4)CC2(CNc2cccc4c(N)nccc24)C3)CC1 (single isomer, unassigned) [Example 24, 4-((1-(((1-aminoisoquinolin-5-yl)amino)methyl)-2-(2-((1r,4r)-4-methoxycyclohexyl)acetyl)-2-azabicyclo[2.1.1]hexan-4-yl)methoxy)-1,6-dimethylpyridin-2(1H)-one] |
| 10 to 100 |  | Cn1ccc(OCC23CN(c4ncc(C5CC5)cn4)C(CNc4cccc5c(N)nccc45)(C2)C3)cc1=O [Example 93, 4-((1-(((1-aminoisoquinolin-5-yl)amino)methyl)-2-(5-cyclopropylpyrimidin-2-yl)-2-azabicyclo[2.1.1]hexan-4-yl)methoxy)-1-methylpyridin-2(1H)-one] |
|  | H2 (>20% inhibition @ 100 μM) | Cc1cc(OCC23CN(C(=O)NC4(c5ccccc5)CC4)C(CNc4cccnc4)(C2)C3)cc(=O)n1C [Example 55, 4-(((1,6-dimethyl-2-oxo-1,2-dihydropyridin-4-yl)oxy)methyl)-N-(1-phenylcyclopropyl)-1-((pyridin-3-ylamino)methyl)-2-azabicyclo[2.1.1]hexane-2-carboxamide] |
| 10 to 100 |  | Cc1cc(OCC23CN(C(=O)CC45CC(C4)C5)C(CNc4cccc5c(N)nccc45)(C2)C3)cc(=O)n1C [Example 26, 4-((1-(((1-aminoisoquinolin-5-yl)amino)methyl)-2-(2-(bicyclo[1.1.1]pentan-1-yl)acetyl)-2-azabicyclo[2.1.1]hexan-4-yl)methoxy)-1,6-dimethylpyridin-2(1H)-one] |
| 10 to 100 |  | Cc1cc(OCC23CN(c4ccc(C5CC5)nn4)C(CNc4cccc5c(N)nccc45)(C2)C3)cc(=O)n1C [Example 95, 4-((1-(((1-Aminoisoquinolin-5-yl)amino)methyl)-2-(6-cyclopropylpyridazin-3-yl)-2-azabicyclo[2.1.1]hexan-4-yl)methoxy)-1,6-dimethylpyridin-2(1H)-one] |
| 40000 to 100000 |  | Cc1cc(OCC23CN(C(=O)NC4(c5ccccc5)CC4)C(CNc4cccnc4O)(C2)C3)cc(=O)n1C [Example 71, 4-(((1,6-Dimethyl-2-oxo-1,2-dihydropyridin-4-yl)oxy)methyl)-1-(((2-hydroxypyridin-3-yl)amino)methyl)-N-(1-phenylcyclopropyl)-2-azabicyclo[2.1.1]hexane-2-carboxamide] |
| 10 to 100 |  | Cn1ccc(OCC23CN(C(=O)CCc4ccc5c(c4)CCO5)C(CNc4cccc5c(N)nccc45)(C2)C3)cc1=O [Example 14, 4-((1-(((1-aminoisoquinolin-5-yl)amino)methyl)-2-(3-(2,3-dihydrobenzofuran-5-yl)propanoyl)-2-azabicyclo[2.1.1]hexan-4-yl)methoxy)-1-methylpyridin-2(1H)-one] |
| 1 to 10 |  | Cc1cc(OCC23CN(C(=O)Nc4ccc5c(c4)CCC5)C(CNc4cccc5c(N)nccc45)(C2)C3)cc(=O)n1C [Example 65, 1-(((1-Aminoisoquinolin-5-yl)amino)methyl)-N-(2,3-dihydro-1H-inden-5-yl)-4-(((1,6-dimethyl-2-oxo-1,2-dihydropyridin-4-yl)oxy)methyl)-2-azabicyclo[2.1.1]hexane-2-carboxamide] |
| 10 to 100 |  | Cn1ccc(OCC23CN(C(=O)C[C@@H]4CCOC4)C(CNc4cccc5c(N)nccc45)(C2)C3)cc1=O [Example 11, (S)-4-((1-(((1-aminoisoquinolin-5-yl)amino)methyl)-2-(2-(tetrahydrofuran-3-yl)acetyl)-2-azabicyclo[2.1.1]hexan-4-yl)methoxy)-1-methylpyridin-2(1H)-one] |
| 100 to 300 |  | Cn1ccc(OCC23CN(C(=O)N4CCc5ccccc5C4)C(CNc4cccc5c(N)nccc45)(C2)C3)cc1=O [Example 37, 4-((1-(((1-aminoisoquinolin-5-yl)amino)methyl)-2-(1,2,3,4-tetrahydroisoquinoline-2-carbonyl)-2-azabicyclo[2.1.1]hexan-4-yl)methoxy)-1-methylpyridin-2(1H)-one] |
| 10 to 100 |  | Cn1ccc(OCC23CN(C(=O)N4CCOCC4)C(CNc4cccc5c(N)nccc45)(C2)C3)cc1=O [Example 31, 4-((1-(((1-aminoisoquinolin-5-yl)amino)methyl)-2-(morpholine-4-carbonyl)-2-azabicyclo[2.1.1]hexan-4-yl)methoxy)-1-methylpyridin-2(1H)-one] |
| 1 to 10 |  | Cn1ccc(OCC23CN(C(=O)NC4(c5ccccc5)COC4)C(CNc4cccc5c(N)nccc45)(C2)C3)cc1=O [Example 69, 1-(((1-aminoisoquinolin-5-yl)amino)methyl)-4-(((1-methyl-2-oxo-1,2-dihydropyridin-4-yl)oxy)methyl)-N-(3-phenyloxetan-3-yl)-2-azabicyclo [2.1.1]hexane-2-carboxamide] |
| 10 to 100 |  | CC(=O)N1CCC(CC(=O)N2CC3(COc4ccn(C)c(=O)c4)CC2(CNc2cccc4c(N)nccc24)C3)CC1 [Example 16, 4-((2-(2-(1-acetylpiperidin-4-yl)acetyl)-1-(((1-aminoisoquinolin-5-yl)amino)methyl)-2-azabicyclo[2.1.1]hexan-4-yl)methoxy)-1-methylpyridin-2(1H)-one] |
| 10 to 100 |  | Cn1ccc(OCC23CN(C(=O)NCC4CCOCC4)C(CNc4cccc5c(N)nccc45)(C2)C3)cc1=O [Example 77, 1-(((1-aminoisoquinolin-5-yl)amino)methyl)-4-(((1-methyl-2-oxo-1,2-dihydropyridin-4-yl)oxy)methyl)-N-((tetrahydro-2H-pyran-4-yl)methyl)-2-azabicyclo[2.1.1]hexane-2-carboxamide] |
